The results in this text go back to patent publication US20030215788A1, “Cysteine thiol-protected peptides for use in immunoassays” (priority 1989, published 2003).

The test system of this test is Antibodies to HIV-1. It counts as binding, human. As for the experimental part: The subject peptide compositions were immobilized onto latex beads and entrapped on a microporous membrane atop an absorbent material for the determination and/or quantitation of antibodies to HIV. Examples of such immunoassay apparatus and methods are the subject of U.S. Pat. Nos. 4,633,901 and 4,727,019, both incorporated herein by reference. The membrane concentration immunoassay involves three incubations comprising a total assay time of 10 minutes. Peptides tested were adsorbed to latex beads by the methods described above.
Each sample was tested on a filtration unit comprising three spots on a 1.2 μm pore size nylon membrane. One spot comprising the test peptide/latex bead preparation, one spot comprising a positive procedural control and the other comprising a negative procedural control.
The peptide/latex bead preparation was suspended in 0.1M Tris buffer, pH 7.2, 0.15M NaCl, 0.01M MgCl2, 10% sucrose, 2% fetal calf serum. Membranes were spotted with a 0.1-0.2% suspension of peptide/bead preparation. Negative procedural control spots were comprised of latex beads coated by adsorption with BSA. While positive procedural control spots were comprised of latex beads coated by adsorption with goat antihuman immunoglobulins.
Serum or plasma samples (40 μl) were diluted 1:10 in dilution buffer (10% heat inactivated normal goat serum, 1% dextran sulfate, 0.2% Tween 20, 2.5% nonfat dry milk, 15 ppm Kathon CG, 0.005% antifoam A, in 20 mM sodium citrate buffer, pH 7.4). Diluted specimen was added to the surface of the membrane and allowed to absorb completely. After waiting 2 min. from the time of specimen addition, 1 ml of wash buffer (0.01M Tris-buffered saline, pH 6.0, 0.05M NaCl, 0.005M MgCl2, 0.1% sodium azide, 10 μg/ml nitro blue tetrazolium, 0.5M potassium thiocyanate) was added and allowed to completely absorb through the membrane. About 0.150 ml (3 drops) of goat anti-human Ig-alkaline phosphatase conjugate diluted in 10 mM phosphate buffered saline, pH 7.4, 0.2% goat gamma globulin, 1% bovine serum albumin, 1 mM MgCl2, 0.1 mM ZnCl2 was added to the membrane and allowed to absorb completely. The membrane was washed twice as above (2 ml) and about 0.150 ml (3 drops) of substrate (1M 2-amino-2-methyl-1-propanol, pH 10.3, 5 mg/ml 3-indoxyl phosphate) was added and allowed to absorb completely. After about 5 min. about 1 ml of 0.5M EDTA, pH 7.4, was passed through the membrane to stop the reaction. After the stop solution was completely absorbed the units were read visually or semi-quantitatively by reflectance.

Read-outs that look alike come from different tables or passages of the source.

As to “Cys-Gly-Gly-Arg-Ile-Leu-Ala-Val-Glu-Arg-Tyr-Leu-Lys-Asp-Gln-Gln-Leu-Leu-Gly-Ile-Trp-Gly-Cys*-Ser-Gly-Lys-Leu-Ile-Cys*-NH2 [Peptide 39GC]”, the “No. Positive/Total No.” value is listed as 0/51 (Autoimmune Samples); 0/1187 (Normal Blood Bank Donors); 0/72 (Problematic HIV-I Seronegative Samples); 0/26 (Secondary, Atypical Syphillis Sera/HIV Neg.); 4/4 (Secondary, Atypical Syphillis Sera/HIV Pos.); 0/79 (Western Blot Neg./LAV-EIA Pos.). Besides, the “No. Positive/Total No.” value is on record as 120/120 (Western Blot Pos./LAV-EIA Pos. (OD < 1.5)), 29/29 (Western Blot Pos./LAV-EIA Pos. (OD > 1.5)), 0/39 (Western Blot p25 Neg./LAV/EIA Pos. (Atypical 1)) and 0/170 (Western Blot p25 Pos./LAV-EIA Pos. (Atypical 2)).
